Results as given in the supplement of paper PMC11208160.

Experiments:
[1] = recombinant barcode read abundance after kanamycin selection (control-corrected) (log10(CPM+1)); higher = more efficient recombination; sequences stand for … in AGTGCAGAGAAAATCGGCCAGTTTTCTCTGCCTGCAGTCCGCATGCCGT…AGATTTATGCAGCGGACTGCCTTTCTCCCAAAGTGATAAACCGGACAGTATCATGGACCGGTTTTCCCGGTAATCCGTATTTGCAAGGTTGGTTTCACT; site = the 11-nt target
Experimental: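 Pooled E. coli target-specificity screen for the IS621 bridge recombinase. Each library plasmid pairs an 11-nt target (CT core) with a bridge RNA whose target-binding loop (9-nt LTG + 4-nt RTG) is reprogrammed; the rest of the 177-nt WT IS621 bridge RNA scaffold is fixed. The plasmid is co-electroporated with a WT donor plasmid; recombinase is induced with 0.1 mM IPTG and recombinants are selected on kanamycin. Recombinant barcodes are sequenced, converted to CPM, averaged over two biological replicates and corrected by the unselected control CPM. Molecule = full bridge RNA written as DNA: LTG = specificity nt 1-9, RTG = reverse complement of specificity nt 8-11, in the WT scaffold.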

[2] = recombinant UMI read abundance after kanamycin selection (control-corrected) (log10(CPM+1)); higher = more efficient recombination; extreme values may be limits of the assay; sequences stand for … in AGTGCAGAGAAAATCGGCCAGTTTTCTCTGCCTGCAGTCCGCATGCCGTGGGACCCCTTGGGTTCTAACCTGTTGCCTAGATTTATGCAGCGGACTGCCTTTCTCCCAAAGTGATAAACCGG…AGGTTGGTTTCACT; site = the 11-nt donor
Summary of the method: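 The measure is log10(CPM+1) for recombinant UMIs. These were PCR-amplified across the donor–target junction and sequenced after Escherichia coli carrying a donor and donor-binding-loop pair library and a target plasmid with T7-inducible IS621 bridge recombinase was plated on IPTG (0.07 mM) plus kanamycin or unselected. CPM were averaged over two replicates and scaled by control-derived factors.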
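For recombinant UMI read abundance after kanamycin selection (control-corrected) in this document: IS621 bridge recombinase in Escherichia coli cells against a fixed T5 target plasmid.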
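For recombinant barcode read abundance after kanamycin selection (control-corrected) in this document: IS621 recombinase and bridge RNA in Escherichia coli cells.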

| Sequence | recombinant barcode read abundance (log10) [1] | recombinant UMI read abundance (log10) [2] |
| --- | --- | --- |
| AAAACTACTTGGGTTCTAACCTGTTGCCA (site AAAACTACTTG) | 0.2 |  |
| AAAACTACTTGGGTTCTAACCTGTTGCCA (site AATGCTACTTG) | 0.15 |  |
| AAAAGCCCTTGGGTTCTAACCTGTTGCCT (site AAAAGCCCTAG) | 0.77 |  |
| TTCGCTGCATGGACCGGTTTTCCCGGTAATCCGTATTTGTG (site TTTGCTGCTCA) |  | 0.00847 |
| TTCGTAACATGGACCGGTTTTCCCGGTAATCCGTATTTGAA (site GCTCGGCCTCC) |  | 0.019 |
| TTCTAGACATGGACCGGTTTTCCCGGTAATCCGTATTTGTT (site TTCTAGACTAA) |  | 0.0133 |
| TTCTATACATGGACCGGTTTTCCCGGTAATCCGTATTTGAC (site ATCTATACTGT) |  | 0 |
| TTCTATACATGGACCGGTTTTCCCGGTAATCCGTATTTGAC (site CTCTATACTGT) |  | 0 |
| TTCTATACATGGACCGGTTTTCCCGGTAATCCGTATTTGAC (site GTCTATACTGT) |  | 0 |
| TTCTATACATGGACCGGTTTTCCCGGTAATCCGTATTTGAC (site TTCTATACTGT) |  | 0.00704 |
| TTCTCCACATGGACCGGTTTTCCCGGTAATCCGTATTTGGA (site TTCTCCACTTC) |  | 0.00322 |
| TTCTCGACATGGACCGGTTTTCCCGGTAATCCGTATTTGTC (site TTCTCGACTGA) |  | 0 |
| TTCTTAGCATGGACCGGTTTTCCCGGTAATCCGTATTTGTT (site TTCTTAGCTAA) |  | 0.0119 |
| TTGACCACATGGACCGGTTTTCCCGGTAATCCGTATTTGCC (site TTGACCACTGG) |  | 1.79 |
| TTGAGCGCATGGACCGGTTTTCCCGGTAATCCGTATTTGCC (site TTGAGCGCTGG) |  | 1.9 |
| TTGAGGCCATGGACCGGTTTTCCCGGTAATCCGTATTTGAC (site TTGAGGCCTGT) |  | 0 |
| TTGATAACATGGACCGGTTTTCCCGGTAATCCGTATTTGGG (site TTGATAACTCC) |  | 0.00616 |
| TTGCATACATGGACCGGTTTTCCCGGTAATCCGTATTTGGA (site TTGCATACTTC) |  | 0.121 |
| TTGCGCACATGGACCGGTTTTCCCGGTAATCCGTATTTGTG (site TTGCGCACTCA) |  | 0.0258 |
| TTGGAGGCATGGACCGGTTTTCCCGGTAATCCGTATTTGTG (site ATGGAGGCTCA) |  | 0.342 |
| TTGGAGGCATGGACCGGTTTTCCCGGTAATCCGTATTTGTG (site CTGGAGGCTCA) |  | 0.329 |
| TTGGAGGCATGGACCGGTTTTCCCGGTAATCCGTATTTGTG (site GTGGAGGCTCA) |  | 0.0131 |
| TTGGAGGCATGGACCGGTTTTCCCGGTAATCCGTATTTGTG (site TTGGAGGCTCA) |  | 0.791 |

| Sequence | recombinant barcode read abundance (log10) [1] | recombinant UMI read abundance (log10) [2] |
| --- | --- | --- |
| TTGGGGCCATGGACCGGTTTTCCCGGTAATCCGTATTTGAA (site TTGGGGCCTTT) |  | 0.00375 |
| TTGGTCACATGGACCGGTTTTCCCGGTAATCCGTATTTGAA (site TTGGTCACTTT) |  | 0.29 |
| TTGGTCCCATGGACCGGTTTTCCCGGTAATCCGTATTTGAA (site TTGGTCCCTTT) |  | 0.00683 |
| TTGGTGGCATGGACCGGTTTTCCCGGTAATCCGTATTTGGC (site TTGGTGGCTGC) |  | 1.84 |
| TTGTTGCCATGGACCGGTTTTCCCGGTAATCCGTATTTGGT (site TTGTTGCCTAC) |  | 0.0353 |
| TTGTTTGCATGGACCGGTTTTCCCGGTAATCCGTATTTGAG (site TTGTTTGCTCT) |  | 0.442 |
| TTTACACCATGGACCGGTTTTCCCGGTAATCCGTATTTGAC (site TATACACCTGT) |  | 0 |
| TTTACACCATGGACCGGTTTTCCCGGTAATCCGTATTTGAC (site TCTACACCTGT) |  | 0 |
| TTTACACCATGGACCGGTTTTCCCGGTAATCCGTATTTGAC (site TGTACACCTGT) |  | 0 |
| TTTACACCATGGACCGGTTTTCCCGGTAATCCGTATTTGAC (site TTTACACCTGT) |  | 0 |
| TTTACCCCATGGACCGGTTTTCCCGGTAATCCGTATTTGCT (site TTTACCCCTAG) |  | 0.0114 |
| TTTACGGCATGGACCGGTTTTCCCGGTAATCCGTATTTGCT (site TTTACGGCTAG) |  | 0.234 |
| TTTACGGCATGGACCGGTTTTCCCGGTAATCCGTATTTGCT (site TTTCCGGCTAG) |  | 0.00939 |
| TTTACGGCATGGACCGGTTTTCCCGGTAATCCGTATTTGCT (site TTTGCGGCTAG) |  | 0.00519 |
| TTTACGGCATGGACCGGTTTTCCCGGTAATCCGTATTTGCT (site TTTTCGGCTAG) |  | 0.0523 |
| TTTAGAACATGGACCGGTTTTCCCGGTAATCCGTATTTGGC (site ATTAGAACTGC) |  | 0.0159 |
| TTTAGAACATGGACCGGTTTTCCCGGTAATCCGTATTTGGC (site CTTAGAACTGC) |  | 0 |
| TTTAGAACATGGACCGGTTTTCCCGGTAATCCGTATTTGGC (site GTTAGAACTGC) |  | 0 |
| TTTAGAACATGGACCGGTTTTCCCGGTAATCCGTATTTGGC (site TTTAGAACTGC) |  | 0 |
| TTTAGAGCATGGACCGGTTTTCCCGGTAATCCGTATTTGTT (site TTTAGAGCTAA) |  | 0.975 |
| TTTAGCTCATGGACCGGTTTTCCCGGTAATCCGTATTTGTT (site TTTAGCTCTAA) |  | 0.0116 |
| TTTCAAACATGGACCGGTTTTCCCGGTAATCCGTATTTGTG (site TTTCAAACTCA) |  | 0.0135 |
| TTTCACCCATGGACCGGTTTTCCCGGTAATCCGTATTTGGG (site TTTCACCCTCC) |  | 0.00832 |

| Sequence | recombinant barcode read abundance (log10) [1] | recombinant UMI read abundance (log10) [2] |
| --- | --- | --- |
| TTTCACTCATGGACCGGTTTTCCCGGTAATCCGTATTTGGT (site TTTCACTCTAC) |  | 0.00742 |
| TTTCCGACATGGACCGGTTTTCCCGGTAATCCGTATTTGTA (site TTTCCGACTTA) |  | 0.018 |
| TTTCTACCATGGACCGGTTTTCCCGGTAATCCGTATTTGGG (site TTTCTACCTCC) |  | 0.00805 |
| TTTCTAGCATGGACCGGTTTTCCCGGTAATCCGTATTTGTA (site TTTCTAGCTTA) |  | 0.542 |
| TTTCTCTCATGGACCGGTTTTCCCGGTAATCCGTATTTGTA (site ATTCTCTCTTA) |  | 0.353 |
| TTTCTCTCATGGACCGGTTTTCCCGGTAATCCGTATTTGTA (site CTTCTCTCTTA) |  | 0.301 |
| TTTCTCTCATGGACCGGTTTTCCCGGTAATCCGTATTTGTA (site GTTCTCTCTTA) |  | 0.297 |
| TTTCTCTCATGGACCGGTTTTCCCGGTAATCCGTATTTGTA (site TTTCTCTCTTA) |  | 0.571 |
| TTTCTGACATGGACCGGTTTTCCCGGTAATCCGTATTTGCC (site TTTCTGACTGG) |  | 0 |
| TTTGAGACATGGACCGGTTTTCCCGGTAATCCGTATTTGGA (site TTTGAGACTTC) |  | 0.832 |
| TTTGCCGCATGGACCGGTTTTCCCGGTAATCCGTATTTGCT (site TTTGCAGCTAG) |  | 0.0102 |
| TTTGCCGCATGGACCGGTTTTCCCGGTAATCCGTATTTGCT (site TTTGCCGCTAG) |  | 0.548 |
| TTTGCCGCATGGACCGGTTTTCCCGGTAATCCGTATTTGCT (site TTTGCGGCTAG) |  | 0.00684 |
| TTTGCCGCATGGACCGGTTTTCCCGGTAATCCGTATTTGCT (site TTTGCTGCTAG) |  | 0 |
| TTTGGCGCATGGACCGGTTTTCCCGGTAATCCGTATTTGAG (site TTTGGCGCTCT) |  | 0.115 |
| TTTGGGGCATGGACCGGTTTTCCCGGTAATCCGTATTTGAC (site TTTGGGGCTGT) |  | 1.57 |
| TTTGTTACATGGACCGGTTTTCCCGGTAATCCGTATTTGCC (site TTTGTTACTGG) |  | 0.44 |
| TTTTTGGCATGGACCGGTTTTCCCGGTAATCCGTATTTGTG (site TATTTGGCTCA) |  | 0.0105 |
| TTTTTGGCATGGACCGGTTTTCCCGGTAATCCGTATTTGTG (site TCTTTGGCTCA) |  | 0.0102 |
| TTTTTGGCATGGACCGGTTTTCCCGGTAATCCGTATTTGTG (site TGTTTGGCTCA) |  | 0.0296 |
| TTTTTGGCATGGACCGGTTTTCCCGGTAATCCGTATTTGTG (site TTTTTGGCTCA) |  | 0.00438 |
